Read-outs that look alike come from different tables or passages of the source.
Legend:
BCRP = molecular target: T1, BCRP (Homo sapiens, UniProt Q9UNQ0); assay: Bidirectional transport in MDCK-BCRP monolayers; type: in vitro ADME; settings: dog, MDCK-BCRP, 5 µM
T1 construct: host or cells: MDCK (BCRP-MDCK)
T1 sequence (Q9UNQ0 1-655): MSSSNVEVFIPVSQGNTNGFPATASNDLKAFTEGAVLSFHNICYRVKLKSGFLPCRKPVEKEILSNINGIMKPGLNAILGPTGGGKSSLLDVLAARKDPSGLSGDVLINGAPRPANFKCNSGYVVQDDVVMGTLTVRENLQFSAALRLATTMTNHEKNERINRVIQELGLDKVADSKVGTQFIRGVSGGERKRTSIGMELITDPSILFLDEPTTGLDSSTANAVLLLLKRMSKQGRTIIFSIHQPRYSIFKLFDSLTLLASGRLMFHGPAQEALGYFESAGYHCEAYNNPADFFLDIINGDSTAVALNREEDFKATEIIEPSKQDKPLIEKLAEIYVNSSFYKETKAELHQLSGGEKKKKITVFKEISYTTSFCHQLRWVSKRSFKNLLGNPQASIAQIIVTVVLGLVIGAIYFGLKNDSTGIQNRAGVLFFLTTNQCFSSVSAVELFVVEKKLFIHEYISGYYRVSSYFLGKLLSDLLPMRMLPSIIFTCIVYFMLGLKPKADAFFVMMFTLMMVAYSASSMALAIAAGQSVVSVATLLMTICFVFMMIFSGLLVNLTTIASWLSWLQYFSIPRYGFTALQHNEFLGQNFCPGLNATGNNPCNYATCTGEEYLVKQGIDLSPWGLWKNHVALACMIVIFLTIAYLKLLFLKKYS
Protocol: Caco-2 (American Type Culture Collection), MDR1-MDCK (NIH), and BCRP-MDCK (transfected by Absorption Systems) cell monolayers were grown to confluence on collagen-coated, microporous membranes in 12-well assay plates. Caco-2 cells were cultured for 27 days, MDCK-MDR1 and MDCK-BCRP cells were cultured for 8 days prior to experiments. […] The experiment was carried out in Hanks’ balanced salt solution (HBSS) containing 10 mM HEPES and 15 mM glucose at pH 7.4. HBSS in the receiver chamber also contained 1% bovine serum albumin. Cells were first pre-incubated for 0.5 h in HBSS with or without the specific inhibitor (1 µM valspodar or 0.5 µM Ko143 for MDR1 and BCRP, respectively). […] Cell monolayers were dosed on the apical side (A to B) or basolateral side (B to A) and incubated at 37°C with 5% CO2 in a humidified incubator. Samples were taken from the donor and receiver chambers at 2 h. Each experiment was performed in duplicate. All samples were assayed by LC-MS/MS. The apparent permeability (Papp) and percent recovery were calculated as described previously ([Katoh et al., 2006]; [Xia et al., 2006]; [Li et al., 2008]).

[1] = Pharmacokinetics in Sprague Dawley rats; type: in vivo; settings: male, rat; for Vd / clearance / AUC(0-inf) / Cmax / Tmax / bioavailability: in vivo; for Vd / clearance: iv; for AUC(0-inf) / Cmax / Tmax / bioavailability / half-life: po; for half-life: plasma, Rat
Protocol: Adult male C57BL/6 mice and Sprague Dawley rats were purchased from Charles River Laboratory (Wilmington, MA). PK studies for mice and rats were conducted at NIH animal facility (Bethesda, MD). In-life dog and monkey PK studies were conducted at Absorption System (San Diego, CA) and Frontage Labs (Concord, OH), respectively. Dogs and monkeys were fasted overnight prior to dose administrations. All experimental procedures were reviewed and approved by the Animal Care and Use Committee (ACUC) of the NIH Division of Veterinary Resources (DVR) or CRO labs for in-life studies.
Male Sprague–Dawley rats (n = 3 or 4 per treatment group, ∼ 343–375 g) were dosed in IV and PO dosing groups: 1 and 5 mg/kg IV, and 10, 30 and 100 mg/kg PO, respectively. Double cannulated rats (one catheter for IV dosing and another one for sampling) were used. Plasma samples were collected from jugular vein over 24 h. In bile duct cannulated (BDC) rat group, a single IV dose of 2 mg/kg was administered to three rats. Rat urine and bile samples were collected for the pre-dose, 0–4 h, 4–8 h, and 8–24 h time periods for BDC rats.
Blood samples from all groups and species were collected in K2EDTA tubes and stored on wet ice pending processing. Blood was centrifuged at 2200 g at 4°C for 10 min to isolate plasma. All samples were stored at -80°C until analysis.
Phoenix WinNonlin, version 8.1 (Certara, St. Louis, MO), was used to perform PK analysis with the non-compartmental approach (Models 200 and 201 for PO and IV datasets). The area under the plasma concentration vs. time curve (AUC) was calculated using the linear trapezoidal method. The terminal rate constant (λ) was obtained from the slope of at least three data points of the apparent terminal phase of the log-linear plasma concentration vs. time curve when available. AUC0–∞ was estimated as the sum of the AUC0–t (where t is the time of the last measurable concentration) and Ct/λ. The apparent terminal half-life (t½) was calculated as 0.693/λ. Bioavailability (F) was calculated using ratios of dose normalized AUC (AUC/Dose) obtained from PO and IV PK studies.

[2] = pH 7.4, with Ko143 0.5 µM, 0.5 µM Ko143

SMILES: N#C[C@@]1(c2ccc3c(N)ncnn23)O[C@H](CO)[C@@H](O)[C@H]1O [GS-441524]
- Papp A→B at 2 h, 5 µM (BCRP; [2]): < 0.198 ×10⁻⁶ cm/s
- Papp B→A at 2 h, 5 µM (BCRP; [2]): < 0.281 ×10⁻⁶ cm/s
- Papp A→B at 2 h, 5 µM (BCRP; pH 7.4, no inhibitor): < 0.197 ×10⁻⁶ cm/s
- Papp B→A at 2 h, 5 µM (BCRP; pH 7.4, no inhibitor): 0.385 ×10⁻⁶ cm/s
- Vd ([1]; 1 mg/kg): 2.6 L/kg
- clearance ([1]; 1 mg/kg): 31 mL/min/kg
- Vd ([1]; 5 mg/kg): 2.2 ± 0.3 L/kg
- clearance ([1]; 5 mg/kg): 25 ± 1.6 mL/min/kg
- AUC(0-inf) ([1]; 10 mg/kg): 2170 ng·h/mL
- Cmax ([1]; 10 mg/kg): 193 ± 57 ng/mL
- Tmax ([1]; 10 mg/kg): 3.8 ± 2.4 h
- bioavailability ([1]; 10 mg/kg): 33 ± 9.8%
- AUC(0-inf) ([1]; 30 mg/kg): 4220 ng·h/mL
- Cmax ([1]; 30 mg/kg): 326 ± 77 ng/mL
- Tmax ([1]; 30 mg/kg): 3.8 ± 2.4 h
- bioavailability ([1]; 30 mg/kg): 21 ± 3.8%
- AUC(0-inf) ([1]; 100 mg/kg): 9560 ng·h/mL
- Cmax ([1]; 100 mg/kg): 825 ± 91 ng/mL
- Tmax ([1]; 100 mg/kg): 2.3 ± 1.3 h
- bioavailability ([1]; 100 mg/kg): 15 ± 3.2%
- half-life ([1]; 10 mg/kg, PO 10 mg/kg, read-out: t1/2 (converted)): 3.4 ± 0.2 h
- half-life ([1]; 30 mg/kg, PO 30 mg/kg, read-out: t1/2 (converted)): 3.4 ± 0.2 h
- half-life ([1]; 100 mg/kg, PO 100 mg/kg, read-out: t1/2 (converted)): 4.2 ± 1.8 h
- half-life ([1]; 100 mg/kg, PO 10, 30 and 100 mg/kg, read-out: Half-life (t1/2)): 3.4 to 4.2 h
